Laboratory results taken from patent publication EP1199304A1, “Bicyclic compounds and pharmaceutical composition containing tricyclic compound for treating or preventing sleep disorders” (Takeda Chemical Industries, Ltd., priority 1997, dated 1997).

Target: melatonin receptor
Test: Inhibition of 2-[125I]iodomelatonin binding (forebrain membrane homogenate)
Set-up: species or system chicken (white leghorn)
Details: forebrains of 7-day-old chicken; 80 pM 2-[^125I]iodomelatonin; 90 minutes at 25°C; non-specific binding with 10^-5M melatonin; log-probit analysis; read-out: IC50 (nM), Action of inhibiting 2-[^125I]iodomelatonin binding
Experimental: Inhibition of 2-[^125I]iodomelatonin binding activity
The forebrains of 7-day-old chicken (white leghorn) were homogenized with ice-cold assay buffer (50 mM Tris-HCl, pH 7.7 at 25°C) and centrifuged at 44,000 x g for 10 minutes at 4°C. The pellet was washed once with the same buffer and storred at -30°C until use. For the assay, the frozen tissue pellet was thawed and homogenized with the assay buffer to make a protein concentration of 0.3 - 0.4 mg/ml. An 0.4 ml aliquot of this homogenate was incubated with a test compound and 80 pM 2-[^125I]iodomelatonin in a total volume of 0.5 ml for 90 minutes at 25°C. The reaction was terminated by adding 3 ml of ice-cold assay buffer immediately followed by vaccum filtration on Whatman GF/B which was further washed twice with 3 ml of ice-cold assay buffer. The radioactivity on the filter was determined by means of γ-counter. […] The 50% inhibiting concentration (IC50) was determined by the log-probit analysis.

| Structure (SMILES) | IC50 [nM] |
| --- | --- |
| CC(=O)NCCC1CCc2ccc3c(c21)CCO3 (stereo not drawn) [Example 1, N-[2-(1,6,7,8-tetrahydro-2H-indeno[5,4-b]furan-8-yl)ethyl]acetamide] | 0.28 |
| CCC(=O)NCCC1=CCc2ccc3c(c21)CCO3 [Example 15, N-[2-(1,6-dihydro-2H-indeno[5,4-b]furan-8-yl)-ethyl]propionamide] | 0.1 |
| CCC(=O)NCCc1c[nH]c2ccc3c(c12)CCCO3 [Example 4, N-[2-(3,7,8,9-tetrahydropyrano[3,2-e]indol-1-yl)ethyl]propionamide] | 0.13 |
| CCC(=O)NCC[C@@H]1CCc2ccc3c(c21)CCO3 [Example 11, (S)-N-[2-(1,6,7,8-tetrahydro-2H-indeno[5,4-b]-furan-8-yl)ethyl]propionamide] | 0.048 |
| CC(=O)NCCc1c[nH]c2ccc3c(c12)CCCO3 [Example 3, N-[2-(3,7,8,9-tetrahydropyrano[3,2-e]indol-1-yl)ethyl]acetamide] | 0.46 |

Continued by falling IC50, values first:

| IC50 [nM] | Structure (SMILES) |
| --- | --- |
| 0.46 | CCC(=O)NCCC1CNc2ccc3c(c21)CCCO3 (stereo not drawn) [Example 7, N-[2-(1,2,3,7,8,9-hexahydropyrano[3,2-e]indol-1-yl)ethyl]propionamide] |
| 0.24 | CC(=O)NCCC1=CCc2ccc3c(c21)CCO3 [Example 14, N-[2-(1,6-dihydro-2H-indeno[5,4-b]furan-8-yl)ethyl]acetamide] |
| 0.22 | CCCC(=O)NCCC1CNc2ccc3c(c21)CCCO3 (stereo not drawn) [Example 8, N-[2-(1,2,3,7,8,9-hexahydropyrano[3,2-e]indol-1-yl)ethyl]butyramide] |
| 0.13 | CCC(=O)NCCC1CCc2ccc3c(c21)CCO3 (stereo not drawn) [Example 2, N-[2-(1,6,7,8-tetrahydro-2H-indeno[5,4-b]furan-8-yl)ethyl]propionamide] |
| 0.12 | CCCC(=O)NCCC1CCc2ccc3c(c21)CCO3 (stereo not drawn) [Example 13, N-[2-(1,6,7,8-tetrahydro-2H-indeno[5,4-b]furan-8-yl)ethyl]butyramide] |
| 0.095 | CCCC(=O)NCCC1=CCc2ccc3c(c21)CCO3 [Example 16, N-[2-(1,6-dihydro-2H-indeno[5,4-b]furan-8-yl)-ethyl]butyramide] |
| 0.082 | CCCC(=O)NCCc1c[nH]c2ccc3c(c12)CCCO3 [Example 5, N-[2-(3,7,8,9-tetrahydropyrano[3,2-e]indol-1-yl)ethyl]butyramide] |
